The subject of the assay is genotype A, "Long" strain RSV. Kind of assay: RSV-A assay (CPE, ATPlite readout in Hep-2 cells). It counts as cell-based. The conditions noted are these: human respiratory syncytial virus, HEp-2, Hep-2 cells, genotype A "Long" strain RSV, MOI 0.1; read-out: Human RSV-A (“Long” strain) EC50. The source says:
Hep-2 cells, (originally derived from tumors grown in irradiated-cortisonised weanling rats that had been injected with epidermoid carcinoma tissue from a person's larynx, but later found to be indistinguishable from HeLa cells by PCR DNA analysis), were used for the culturing of genotype A, “Long” strain RSV. Flasks were inoculated with RSV and viral stocks were collected once cytopathic effect (CPE) was greater than […]. Viral stocks in […] sucrose media were snap frozen using liquid nitrogen to increase viral stability. Viral stock titers were quantified by tissue culture infectious dose 50% (TCID50) using 8,000 cells per well and 3-fold viral dilutions across a 96-well plate, cultured for 4 days. Viral stock titers were also quantified by a plaque forming unit assay, as described elsewhere.
Following extensive parameter testing, the final assay is run as follows: Hep-2 cells are seeded into the inner 60 wells of a 96-well plate at 8,000 cells per well in a volume of 50 μL using Growth Media (DMEM without phenol red, 1% L-Glut, 1% Penn/Strep, 1% nonessential amino acids, 10% heat-inactivated FBS). 2-fold serial dilutions of control and test compounds are added to the wells in duplicate in a total volume of 25 μL. Viral stock is then added to the wells at a multiplicity of infection (MOI) of 0.1 in a volume of 25 μL, bringing the total volume of each well to 100 μL. The MOI is calculated using the PFU/mL, or TCID50 if unavailable. Each 96-well plate has a control column of 6 wells with cells and virus but no compound (negative control, max CPE), a column with cells but no compound or virus (positive control, minimum CPE), and a column with no cells or virus or compound (background plate/reagent control). The control wells with cells but no virus are given an additional 25 μL of growth media containing an equal quantity of sucrose as those wells receiving the viral stock in order to keep consistent in media and volume conditions. The outer wells of the plate are filled with 125 μL of moat media (DMEM, 1% Penn/Strep) to act as a thermal and evaporative moat around the test wells. Following a 5-day incubation period, the plates are read using ATPlite (50 uL added per well), which quantifies the amount of ATP (a measure of cell health) present in each well. Assay plates are read using the Envision luminometer. […] EC50 ranges are as follows: A<0.2 μM; B>0.2 μM.
Usually EC50 stands for the concentration needed to bring the measured effect to its halfway point. In the case of `COc1cc(C(=O)NC[C@](O)(c2cc3c(c(-c4ccc(F)cc4)n2)OC[C@]3(C)CNCC2CC2)C(F)(F)F)ccc1OC(F)F` [Example 41], the EC50 was above 0.2 µM.
With `C[C@]1(CNCC2CC2)COc2c1cc([C@@](O)(CNC(=O)c1ccc(OC(F)F)c(O)c1)C(F)(F)F)nc2-c1ccc(F)cc1` [Example 42], the EC50 was above 0.2 µM.
On to `COc1cc(C(=O)NC[C@](O)(c2cc3c(c(-c4ccc(F)cc4)n2)OC[C@]3(C)C(=O)NC2CCCC2)C(F)(F)F)cc2cccnc12` [Example 47], for which the EC50 is above 0.2 µM.
Regarding `COc1cc(C(=O)NC[C@](O)(c2cc3c(c(-c4ccc(F)cc4)n2)OC[C@]3(C)C(=O)NCC(F)(F)F)C(F)(F)F)cc2cccnc12` [Example 48], the EC50 was below 0.2 µM.
`COc1cc(C(=O)NC[C@](O)(c2cc3c(c(-c4ccc(F)cc4)n2)OC[C@]3(C)C(=O)NCC2CC2)C(F)(F)F)cc2cccnc12` [Example 50]: the EC50 was below 0.2 µM.
For `COc1cc(C(=O)NC[C@](O)(c2cc3c(c(-c4ccc(F)cc4)n2)OC[C@]3(C)C(=O)NC2(C(F)(F)F)CC2)C(F)(F)F)cc2cccnc12` [Example 51], the EC50 is above 0.2 µM.
For the compound `COc1cc(C(=O)NC[C@](O)(c2cc3c(c(-c4ccc(F)cc4)n2)OC[C@]3(C)C(=O)NC23CC(C2)C3)C(F)(F)F)cc2cccnc12` [Example 54], the EC50 was below 0.2 µM.
Under `COc1cc(C(=O)NC[C@](O)(c2cc3c(c(-c4ccc(F)cc4)n2)OC[C@]3(C)C(=O)NC23CC(F)(C2)C3)C(F)(F)F)cc2cccnc12` [Example 55] stands below 0.2 µM; under `COc1cc(C(=O)NC[C@](O)(c2cc3c(c(-c4ccc(F)cc4)n2)OC[C@]3(C)C(=O)NC2(C)COC2)C(F)(F)F)cc2cccnc12` [Example 57], below 0.2 µM.
For `COc1cc(C(=O)NC[C@](O)(c2cc3c(c(-c4ccc(F)cc4)n2)OC[C@]3(C)C(=O)NC2(C)CC(F)(F)C2)C(F)(F)F)cc2cccnc12` [Example 58], the EC50 is above 0.2 µM.
Consider `C[C@]1(C(N)=O)COc2c1cc([C@@](O)(CNC(=O)c1cc(OC(F)F)c3ncccc3c1)C(F)(F)F)nc2-c1ccc(F)cc1` [Example 59], for which the EC50 is below 0.2 µM.
Regarding `COc1cc(C(=O)NC[C@](O)(c2cc3c(c(-c4ccc(F)cc4)n2)OC[C@]3(C)C(N)=O)C(F)(F)F)cc2c1NC(=O)CC2` [Example 60], the EC50 is below 0.2 µM.
The same measure for `C[C@]1(C(N)=O)COc2c1cc([C@@](O)(CNC(=O)c1cc(F)c3ncccc3c1)C(F)(F)F)nc2-c1ccc(F)cc1` [Example 63]: below 0.2 µM.
`C[C@]1(C(N)=O)COc2c1cc([C@@](O)(CNC(=O)c1cc(C(F)(F)F)c3ncccc3c1)C(F)(F)F)nc2-c1ccc(F)cc1` [Example 64]: the EC50 was below 0.2 µM.
`C[C@]1(C(N)=O)COc2c1cc([C@@](O)(CNC(=O)c1ccc3c(c1)OC(F)(F)O3)C(F)(F)F)nc2-c1ccc(F)cc1` [Example 66]: the EC50 is above 0.2 µM.
`COc1cc(C(=O)NC[C@](O)(c2cc3c(c(-c4ccc(F)cc4)n2)OC[C@]3(C)C(N)=O)C(F)(F)F)ccc1OC(F)F` [Example 67]: the EC50 is below 0.2 µM.
On to `COc1cc(C(=O)NC[C@](O)(c2cc3c(c(-c4ccc(F)cc4)n2)OC[C@]3(C)C(N)=O)C(F)(F)F)ccc1OCCF` [Example 68], for which the EC50 was below 0.2 µM.
With `C[C@]1(C(N)=O)COc2c1cc([C@@](O)(CNC(=O)c1ccc(OC(F)F)c(OC(F)F)c1)C(F)(F)F)nc2-c1ccc(F)cc1` [Example 70], the EC50 is below 0.2 µM.
On to `C[C@]1(C(N)=O)COc2c1cc([C@@](O)(CNC(=O)c1ccc(OC3CC3)cc1)C(F)(F)F)nc2-c1ccc(F)cc1` [Example 71], for which the EC50 was below 0.2 µM.
Under `C[C@]1(C(N)=O)COc2c1cc([C@@](O)(CNC(=O)c1ccc(OC3CC3)c(F)c1)C(F)(F)F)nc2-c1ccc(F)cc1` [Example 72] stands below 0.2 µM.
Consider `COc1cc(C(=O)NC[C@](O)(c2cc3c(c(-c4ccc(F)cc4)n2)OC[C@]3(C)C(=O)NCC2(C)CC2)C(F)(F)F)cc2cccnc12` [Example 76], for which the EC50 is below 0.2 µM.
Under `C[C@]1(C(N)=O)COc2c1cc([C@@](O)(CNC(=O)c1ccc(OC3CC3)c(-c3ccccc3)c1)C(F)(F)F)nc2-c1ccc(F)cc1` [Example 77] stands below 0.2 µM.
With `C[C@]1(C(N)=O)COc2c1cc([C@@](O)(CNC(=O)c1ccc(OC3CC3)c(-c3cncnc3)c1)C(F)(F)F)nc2-c1ccc(F)cc1` [Example 78], the EC50 is below 0.2 µM.
For `Cc1ncccc1-c1cc(C(=O)NC[C@](O)(c2cc3c(c(-c4ccc(F)cc4)n2)OC[C@]3(C)C(N)=O)C(F)(F)F)ccc1OC1CC1` [Example 97], the EC50 was above 0.2 µM.
Turning to `C[C@]1(C(N)=O)COc2c1cc([C@@](O)(CNC(=O)c1ccc(OC3CC3)c(-c3ccnc(C(F)(F)F)c3)c1)C(F)(F)F)nc2-c1ccc(F)cc1` [Example 105], the EC50 was above 0.2 µM.
Turning to `C[C@]1(C(N)=O)COc2c1cc([C@@](O)(CNC(=O)c1ccc(OC3CC3)c(-c3ccccn3)c1)C(F)(F)F)nc2-c1ccc(F)cc1` [Example 106], the EC50 is below 0.2 µM.
On to `Cc1ccc(-c2cc(C(=O)NC[C@](O)(c3cc4c(c(-c5ccc(F)cc5)n3)OC[C@]4(C)C(N)=O)C(F)(F)F)ccc2OC2CC2)nc1` [Example 107], for which the EC50 was above 0.2 µM.
The same measure for `C[C@]1(C(N)=O)COc2c1cc([C@@](O)(CNC(=O)c1ccc(OC3CC3)c(-c3ccc(C(F)(F)F)cn3)c1)C(F)(F)F)nc2-c1ccc(F)cc1` [Example 108]: above 0.2 µM; for `Cc1cccc(-c2cc(C(=O)NC[C@](O)(c3cc4c(c(-c5ccc(F)cc5)n3)OC[C@]4(C)C(N)=O)C(F)(F)F)ccc2OC2CC2)n1` [Example 109]: below 0.2 µM.
Turning to `C[C@]1(C(N)=O)COc2c1cc([C@@](O)(CNC(=O)c1ccc(OC3CC3)c(-c3cnc(C(F)(F)F)nc3)c1)C(F)(F)F)nc2-c1ccc(F)cc1` [Example 111], the EC50 is above 0.2 µM.
`C[C@]1(C(N)=O)COc2c1cc([C@@](O)(CNC(=O)c1ccc(OC3CC3)c(-c3cnc(C4CC4)nc3)c1)C(F)(F)F)nc2-c1ccc(F)cc1` [Example 112]: the EC50 is below 0.2 µM.
The same measure for `C[C@]1(C(N)=O)COc2c1cc([C@@](O)(CNC(=O)c1ccc(OC3CC3)c(-c3ccncc3C(F)(F)F)c1)C(F)(F)F)nc2-c1ccc(F)cc1` [Example 113]: above 0.2 µM; for `Cc1cnc(-c2cc(C(=O)NC[C@](O)(c3cc4c(c(-c5ccc(F)cc5)n3)OC[C@]4(C)C(N)=O)C(F)(F)F)ccc2OC2CC2)cn1` [Example 115]: below 0.2 µM.
Take `Cc1cnccc1-c1cc(C(=O)NC[C@](O)(c2cc3c(c(-c4ccc(F)cc4)n2)OC[C@]3(C)C(N)=O)C(F)(F)F)ccc1OC1CC1` [Example 117]: the concentration for a half-maximal effect (EC50) was above 0.2 µM.
For `C[C@]1(C(N)=O)COc2c1cc([C@@](O)(CNC(=O)c1ccc(OC3CC3)c(-c3ccc(C(F)(F)F)nc3)c1)C(F)(F)F)nc2-c1ccc(F)cc1` [Example 118], the EC50 was above 0.2 µM.
Regarding `C[C@]1(C(N)=O)COc2c1cc([C@@](O)(CNC(=O)c1ccc(OC3CC3)c(-c3ccncc3)c1)C(F)(F)F)nc2-c1ccc(F)cc1` [Example 119], the EC50 is above 0.2 µM.
Consider `Cc1cc(-c2cc(C(=O)NC[C@](O)(c3cc4c(c(-c5ccc(F)cc5)n3)OC[C@]4(C)C(N)=O)C(F)(F)F)ccc2OC2CC2)ccn1` [Example 120], for which the EC50 was below 0.2 µM.
The same measure for `Cc1noc(C)c1-c1cc(C(=O)NC[C@](O)(c2cc3c(c(-c4ccc(F)cc4)n2)OC[C@]3(C)C(N)=O)C(F)(F)F)ccc1OC1CC1` [Example 121]: above 0.2 µM; for `C[C@]1(C(N)=O)COc2c1cc([C@@](O)(CNC(=O)c1ccc(OC3CC3)c(C3=CCOCC3)c1)C(F)(F)F)nc2-c1ccc(F)cc1` [Example 122]: below 0.2 µM.
On to `C[C@]1(C(N)=O)COc2c1cc([C@@](O)(CNC(=O)c1ccc(OC3CC3)c(-c3nccs3)c1)C(F)(F)F)nc2-c1ccc(F)cc1` [Example 125], for which the EC50 is below 0.2 µM.
On to `C[C@]1(C(N)=O)COc2c1cc([C@@](O)(CNC(=O)c1ccc(OC3CC3)c(-c3cscn3)c1)C(F)(F)F)nc2-c1ccc(F)cc1` [Example 128], for which the EC50 is below 0.2 µM.
With `C[C@]1(C(N)=O)COc2c1cc([C@@](O)(CNC(=O)c1ccc(OC3CC3)c(-c3cncs3)c1)C(F)(F)F)nc2-c1ccc(F)cc1` [Example 129], the concentration for a half-maximal effect (EC50) is below 0.2 µM.
Take `COc1ncc(-c2cc(C(=O)NC[C@](O)(c3cc4c(c(-c5ccc(F)cc5)n3)OC[C@]4(C)C(N)=O)C(F)(F)F)ccc2OC2CC2)s1` [Example 130]: the EC50 was above 0.2 µM.
Under `CCc1ncc(-c2cc(C(=O)NC[C@](O)(c3cc4c(c(-c5ccc(F)cc5)n3)OC[C@]4(C)C(N)=O)C(F)(F)F)ccc2OC2CC2)cn1` [Example 131] stands below 0.2 µM.

Values taken from patent publication US11505558B1, “Antiviral heterocyclic compounds” (Enanta Pharmaceuticals, Inc., priority 2019, dated 2022).
